The values that follow come from article PMC8954792 (Viruses, 2022).

The structures appear in SMILES notation.

The test concerns authentic SARS-CoV-2 Delta (B.1.617.2) variant. Kind of test: microbe, parasite or virus in culture. The settings on record: Severe acute respiratory syndrome coronavirus 2, Vero C1008. The format is cell-based.

Consider `CCOc1ccc(CCN2C(=O)/C(=C/c3ccc(-c4ccc(Cl)c(C(=O)O)c4)o3)SC2=S)cc1` [FD009], for which 0.0135 µM corresponded to half-maximal inhibition (IC50). Take `C#CCOc1ccc(CCN2C(=O)/C(=C/c3ccc(-c4ccc(Cl)c(C(=O)O)c4)o3)SC2=S)cc1` [FD007]: inhibition was half-maximal at 0.0525 µM (IC50). Compared with the last compound, the IC50 is about 3.9-fold higher. `O=C(O)c1cc(-c2ccc(/C=C3\SC(=S)N(CCc4ccc(OCc5ccc(F)cc5)cc4)C3=O)o2)ccc1Cl` [FD010]: it took 0.0263 µM to reach half-maximal inhibition (IC50). As for `O=C(O)c1cc(-c2ccc(/C=C3\SC(=S)N(CCc4ccc(OCC5CC5)cc4)C3=O)o2)ccc1Cl` [FD012], the IC50 (commonly the point on the concentration scale where inhibition reaches its midpoint) amounted to 0.127 µM. This IC50 lies about 4.8-fold higher than the previous one. The compound `CCC(CC)COC(=O)[C@H](C)N[P@](=O)(OC[C@H]1O[C@@](C#N)(c2ccc3c(N)ncnn23)[C@H](O)[C@@H]1O)Oc1ccccc1` [Remdesivir, remdesivir, reference compound] showed a half-maximal inhibitory concentration (IC50) of 0.0186 µM. `C#CCOCCOc1ccc(CCN2C(=O)/C(=C/c3ccc(-c4ccc(Cl)c(C(=O)O)c4)o3)SC2=S)cc1` [FD008]: the IC50 was 0.0959 µM. Under `O=C(O)c1cc(-c2ccc(/C=C3\SC(=S)N(CCc4ccc(OCc5ccsc5)cc4)C3=O)o2)ccc1Cl` [FD013] stands 0.0603 µM.
